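The compound was tested at five concentrations on cells cultured in 96-well plates, with a 48-hour exposure period. At the GI50, growth is halved.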 The source made the active and inactive calls. No stated cut-off is given here; in the data, active = GI50 up to about 1.1 µM and inactive = higher.
Legend:
Test in all cases: DTP human tumour cell line panel, 48 h
NCI-H460 = system: NCI-H460
SF-295 = system: SF-295
NCI/ADR-RES = system: NCI/ADR-RES
EKVX = system: EKVX
SK-MEL-2 = system: SK-MEL-2
NCI-H226 = system: NCI-H226
HOP-92 = system: HOP-92
NCI-H522 = system: NCI-H522
TK-10 = system: TK-10
A549 = system: A549
M14 = system: M14
SNB-75 = system: SNB-75
Malme-3M = system: Malme-3M
COLO 205 = system: COLO 205
HT-29 = system: HT-29
HOP-62 = system: HOP-62
OVCAR-8 = system: OVCAR-8
SN12C = system: SN12C
HCC 2998 = system: HCC 2998

Structure (SMILES)	GI50 (NCI-H460)	GI50 (SF-295)	GI50 (NCI/ADR-RES)	GI50 (EKVX)	GI50 (SK-MEL-2)	GI50 (NCI-H226)	GI50 (HOP-92)	GI50 (NCI-H522)	GI50 (TK-10)	GI50 (A549)	GI50 (M14)	GI50 (SNB-75)	GI50 (Malme-3M)	GI50 (COLO 205)	GI50 (HT-29)	GI50 (HOP-62)	GI50 (OVCAR-8)	GI50 (SN12C)	GI50 (HCC 2998)
N=C(N)SCc1nc(-c2ccc(Cl)cc2)no1	23.8 µM (inactive)	17.9 µM (inactive)	27.9 µM (inactive)	18.5 µM (inactive)	13.2 µM (inactive)	> 100 µM (inactive)	29.1 µM (inactive)	10.6 µM (inactive)	20.6 µM (inactive)	38.4 µM (inactive)	16.8 µM (inactive)	23.1 µM (inactive)	16.9 µM (inactive)	14.6 µM (inactive)	10.2 µM (inactive)	27.3 µM (inactive)	30.1 µM (inactive)	17.8 µM (inactive)	–
O=C(O)c1ccccc1NCn1c(=S)sc2ccccc21	21.9 µM (inactive)	45.6 µM (inactive)	> 100 µM (inactive)	> 100 µM (inactive)	> 100 µM (inactive)	–	> 100 µM (inactive)	27 µM (inactive)	94.6 µM (inactive)	68.7 µM (inactive)	> 100 µM (inactive)	> 100 µM (inactive)	35.5 µM (inactive)	25.7 µM (inactive)	59.8 µM (inactive)	45.1 µM (inactive)	> 100 µM (inactive)	35.1 µM (inactive)	–
C/C(=C\Cc1ccc(F)cc1)CCCCCC/C(C)=C/Cc1ccc(F)cc1	4.71 µM (inactive)	10 µM (inactive)	11.9 µM (inactive)	14.9 µM (inactive)	16.9 µM (inactive)	–	10.2 µM (inactive)	6.59 µM (inactive)	15.5 µM (inactive)	3.65 µM (inactive)	17.4 µM (inactive)	18.7 µM (inactive)	–	16.4 µM (inactive)	16.1 µM (inactive)	10.5 µM (inactive)	14.4 µM (inactive)	15.7 µM (inactive)	–
CCOP(=O)(/C=C/n1ccc(=O)[nH]c1=O)OCC	> 100 µM (inactive)	> 100 µM (inactive)	> 100 µM (inactive)	> 100 µM (inactive)	> 100 µM (inactive)	> 100 µM (inactive)	–	> 100 µM (inactive)	> 100 µM (inactive)	> 100 µM (inactive)	> 100 µM (inactive)	> 100 µM (inactive)	–	> 100 µM (inactive)	> 100 µM (inactive)	> 100 µM (inactive)	> 100 µM (inactive)	> 100 µM (inactive)	–
CN(N)c1cc(=O)[nH]c(=O)[nH]1	> 100 µM (inactive)	> 100 µM (inactive)	> 100 µM (inactive)	> 100 µM (inactive)	–	> 100 µM (inactive)	–	> 100 µM (inactive)	> 100 µM (inactive)	54 µM (inactive)	–	–	> 100 µM (inactive)	–	> 100 µM (inactive)	> 100 µM (inactive)	> 100 µM (inactive)	> 100 µM (inactive)	> 100 µM (inactive)
Cc1ccc(S(=O)(=O)OCC(=O)O)cc1	> 100 µM (inactive)	> 100 µM (inactive)	> 100 µM (inactive)	> 100 µM (inactive)	> 100 µM (inactive)	–	> 100 µM (inactive)	> 100 µM (inactive)	> 100 µM (inactive)	> 100 µM (inactive)	> 100 µM (inactive)	–	> 100 µM (inactive)	–	> 100 µM (inactive)	> 100 µM (inactive)	> 100 µM (inactive)	> 100 µM (inactive)	–
N#CCCN(CCC#N)c1ccc(/C=C2\N=C(c3ccccc3)N(c3ccc(F)cc3)C2=O)cc1	> 100 µM (inactive)	> 100 µM (inactive)	> 100 µM (inactive)	> 100 µM (inactive)	> 100 µM (inactive)	> 100 µM (inactive)	> 100 µM (inactive)	–	> 100 µM (inactive)	> 100 µM (inactive)	> 100 µM (inactive)	> 100 µM (inactive)	> 100 µM (inactive)	> 100 µM (inactive)	> 100 µM (inactive)	> 100 µM (inactive)	> 100 µM (inactive)	> 100 µM (inactive)	–
C[C@@H]1CC(=O)C[C@@H]2CC[C@H]3[C@@H]4CC[C@H](OC(=O)c5cccc6cc7ccccc7nc56)[C@H]4CC[C@@H]3[C@H]21	14.1 µM (inactive)	27.8 µM (inactive)	20.9 µM (inactive)	16.7 µM (inactive)	17.1 µM (inactive)	26.5 µM (inactive)	23.3 µM (inactive)	5.6 µM (inactive)	27.9 µM (inactive)	25.1 µM (inactive)	15.5 µM (inactive)	15.6 µM (inactive)	8.71 µM (inactive)	22.2 µM (inactive)	15.8 µM (inactive)	22.8 µM (inactive)	16 µM (inactive)	16.6 µM (inactive)	–
OCC1=C[C@@](COCc2ccccc2)(OCc2ccccc2)[C@@H](OCc2ccccc2)[C@@H]1OCc1ccccc1	18.8 µM (inactive)	13.2 µM (inactive)	3.61 µM (inactive)	11.7 µM (inactive)	12.7 µM (inactive)	15.5 µM (inactive)	–	11 µM (inactive)	21.3 µM (inactive)	10.5 µM (inactive)	23.9 µM (inactive)	–	18 µM (inactive)	11.6 µM (inactive)	12.7 µM (inactive)	24.2 µM (inactive)	36.2 µM (inactive)	2.86 µM (inactive)	13.7 µM (inactive)
Nc1c(OCC(=O)O)ccc2cc(S(=O)(=O)O)ccc12	> 100 µM (inactive)	> 100 µM (inactive)	> 100 µM (inactive)	–	> 100 µM (inactive)	> 100 µM (inactive)	–	> 100 µM (inactive)	> 100 µM (inactive)	> 100 µM (inactive)	> 100 µM (inactive)	> 100 µM (inactive)	> 100 µM (inactive)	> 100 µM (inactive)	–	> 100 µM (inactive)	> 100 µM (inactive)	> 100 µM (inactive)	> 100 µM (inactive)
O=[N+]([O-])c1ccc(Cl)cc1N/N=C/c1cccc2cccnc12	> 100 µM (inactive)	> 100 µM (inactive)	> 100 µM (inactive)	> 100 µM (inactive)	–	–	–	> 100 µM (inactive)	> 100 µM (inactive)	> 100 µM (inactive)	> 100 µM (inactive)	59.2 µM (inactive)	–	> 100 µM (inactive)	> 100 µM (inactive)	> 100 µM (inactive)	48.2 µM (inactive)	> 100 µM (inactive)	> 100 µM (inactive)
CNC(=O)CNC(=O)N(C[C@@H]1CCCN1C(=O)[C@H](CC(C)C)NC(=O)OC(C)(C)C)C(C)C	> 100 µM (inactive)	> 100 µM (inactive)	> 100 µM (inactive)	> 100 µM (inactive)	> 100 µM (inactive)	> 100 µM (inactive)	–	> 100 µM (inactive)	–	> 100 µM (inactive)	> 100 µM (inactive)	> 100 µM (inactive)	> 100 µM (inactive)	> 100 µM (inactive)	> 100 µM (inactive)	> 100 µM (inactive)	> 100 µM (inactive)	> 100 µM (inactive)	> 100 µM (inactive)
CNC(=S)NNc1ncnc2c1ncn2-c1ccc(C)cc1	> 100 µM (inactive)	> 100 µM (inactive)	> 100 µM (inactive)	> 100 µM (inactive)	> 100 µM (inactive)	> 100 µM (inactive)	> 100 µM (inactive)	> 100 µM (inactive)	> 100 µM (inactive)	> 100 µM (inactive)	> 100 µM (inactive)	–	> 100 µM (inactive)	> 100 µM (inactive)	> 100 µM (inactive)	> 100 µM (inactive)	> 100 µM (inactive)	> 100 µM (inactive)	–
O=C(c1cccc2ccccc12)C1S(=O)(=O)OCCOS1(=O)=O	> 100 µM (inactive)	0.0151 µM (active)	> 100 µM (inactive)	> 100 µM (inactive)	> 100 µM (inactive)	–	–	–	> 100 µM (inactive)	> 100 µM (inactive)	> 100 µM (inactive)	–	> 100 µM (inactive)	> 100 µM (inactive)	> 100 µM (inactive)	> 100 µM (inactive)	> 100 µM (inactive)	> 100 µM (inactive)	> 100 µM (inactive)
COC(=O)C(=CNC(N)=O)C(=O)OC	> 100 µM (inactive)	> 100 µM (inactive)	> 100 µM (inactive)	> 100 µM (inactive)	> 100 µM (inactive)	–	> 100 µM (inactive)	> 100 µM (inactive)	> 100 µM (inactive)	> 100 µM (inactive)	> 100 µM (inactive)	–	–	> 100 µM (inactive)	> 100 µM (inactive)	> 100 µM (inactive)	> 100 µM (inactive)	> 100 µM (inactive)	–
CC1(C)CCC2=C(O1)/C(=N\Nc1ccccc1)c1ccccc1C2=O	23.2 µM (inactive)	24.9 µM (inactive)	31.1 µM (inactive)	20.9 µM (inactive)	16 µM (inactive)	39.9 µM (inactive)	24 µM (inactive)	29.4 µM (inactive)	17.8 µM (inactive)	27.2 µM (inactive)	31.5 µM (inactive)	–	43.9 µM (inactive)	31.8 µM (inactive)	15.9 µM (inactive)	35.4 µM (inactive)	36.2 µM (inactive)	20.3 µM (inactive)	–
CC1(c2ccc(Cl)cc2)C=C(c2ccc(Cl)cc2)C(C#N)=C(C(C#N)C#N)N1.CNC (configuration not stated)	20.4 µM (inactive)	17.6 µM (inactive)	17.9 µM (inactive)	16.6 µM (inactive)	19.5 µM (inactive)	19.8 µM (inactive)	–	–	18.7 µM (inactive)	19.2 µM (inactive)	18.6 µM (inactive)	18.8 µM (inactive)	14.1 µM (inactive)	14.5 µM (inactive)	16.6 µM (inactive)	16.5 µM (inactive)	14.5 µM (inactive)	18.3 µM (inactive)	16.3 µM (inactive)
